Source: patent US20070254035A1, “Preparing Active Polymer Extrudates” (priority 2003, published 2007)

What was measured:
lysozyme = test: Standard activity assay of lysozyme liberated from the CO2-processed polymer extrudate; assay type: biochemical; conditions: Example 6: poly(D,L-lactic acid) MW 71,000 : enzyme ca. 20:1 w/w, CO2 ca. 35° C., 300 bar; compared to lysozyme that has not undergone processing
Description: (§1) Poly(D,L-lactic acid) (MW 71,000) and lysozyme enzyme powder are added to a high pressure autoclave at a defined ratio (ca. 20:1 weight for weight). The autoclave is charged with carbon dioxide at a defined temperature and pressure (ca. 35° C., 300 bar) sufficient to ensure plasticization of the polymer by carbon dioxide and the contents are mixed together. Discharging of the contents into a second autoclave at atmospheric pressure, through a longer angled nozzle, yields a solid fibrous-mesh product, containing lysozyme, of similar morphology to Example 1. Upon liberation from the polymer the biological activity of lysozyme is unaffected by the carbon dioxide processing compared to lysozyme that has not undergone processing. Standard activity assays described in the literature are used to determine the lysozyme activity.

ribonuclease = test: Standard activity assay of ribonuclease liberated from the CO2-processed polymer extrudate; assay type: biochemical; conditions: Example 5: poly(D,L-lactic acid) MW 71,000 : enzyme ca. 20:1 w/w, CO2 ca. 35° C., 300 bar; compared to ribonuclease that has not undergone processing
Description: as §1, with “ribonuclease” for “lysozyme”, “ribonuclease,” for “lysozyme,”

lysozyme
biological activity of lysozyme upon liberation from the polymer (lysozyme): unaffected

ribonuclease
biological activity of ribonuclease upon liberation from the polymer (ribonuclease): unaffected
